Assay results: patent US6063803A, “Octahydropyrrolo-[3,4-c]carbazoles useful as analgesic agents” (Ortho-McNeil Pharmaceutical, Inc., priority 1999, dated 2000)
Structures can show the parent of a compound that is named as a salt.

Assay: mouse acetylcholine bromide-induced abdominal constriction assay
Assay type: in vivo, mice (Male, Cr1:CD-1)
Settings: Mus musculus
Description: The analgesic activity of compounds of Formula I were determined in the following in vivo assay. The procedure was run essentially as described by H. Collier et al. in B. J. Pharmacol. Chemother., 32: 295-310, 1968, with minor modifications. Mice (Male, Cr1:CD-1, Charles River Laboratories) were used in the following example. The test drugs or appropriate vehicle were administered orally (10 mL/kg, p.o.) or subcutaneously (10 mL/kg, s.c.) and 30 minutes later the animal received an intraperitoneal (i.p.) injection of 5.5 mg/kg acetylcholine bromide. The mice were then placed in glass bell jars and observed for a ten minute observation period for the occurrence of an abdominal constriction response (defined as a wave of constriction and elongation passing caudally along the abdominal wall, accompanied by a twisting of the trunk and followed by extension of the hind limbs). The percent inhibition of this response to antinociceptive stimulus (equated to % analgesia) was calculated as follows: The % inhibition of response, i.e., % analgesia is equal to the number of non-responding drug-treated animals×100 divided by the number of animals in the group.
The ED50 values and their 95% fiducial limits were determined by a computer assisted probit analysis. […] This effect lasted for 4-5 hours.
Table A lists the % inhibition for some compounds of the invention. Unless otherwise indicated the compounds were administered s.c. at 30 mg/kg. [drawing 63]

SMILES	ED50
COc1cccc(C2(O)CCCCC2CN(C)C)c1 (stereo not shown) [tramadol, reference compound]	5.4 mg/kg

Same assay, conditions: Mus musculus, 0.5 h; 30 mg/kg po; acetylcholine bromide 5.5 mg/kg i.p. 30 min later; read-out: % inhibition @ 30 mg/kg (po)

SMILES	responders at 30 mg/kg	% of mice protected from abdominal constriction (non-responders) at 30 mg/kg
C[C@@H]1C[C@H]2CN(C)C[C@H]2c2c1[nH]c1ccccc21 (relative stereo) [Compound 88, (±)-3aα,5α,10cα-4,5,6,10c-Octahydro-2,5-dimethylpyrrolo[3,4-c]carbazole]	93%	–
CN1C[C@@H]2CCc3[nH]c4ccccc4c3[C@H]2C1 (relative stereo) [Compound 72, (±)-3aα,10cβ-1,2,3,3a,4,5,6,10c-Octahydro-2-methylpyrrolo-[3,4-c]carbazole Fumarate [1.0:0.55]]	100%	–
Cc1cccc2c3c([nH]c12)CC[C@H]1CN(C)C[C@@H]31 (relative stereo) [Compound 40, (±)-3aα,10cα,-1,2,3,3a,4,5,6,10c-octahydro-2,7-dimethylpyrrolo[3,4-c]carbazole]	87%	–
CN1C[C@@H]2CCc3[nH]c4cc(F)ccc4c3[C@@H]2C1 (relative stereo) [Compound 30, (±)-3aα,10cα-4,5,6,10c-Octahydro-8-fluoro-2-methylpyrrolo[3,4-c]carbazole Fumarate [1:1.5]]	100%	–
CC(C)N1C[C@@H]2CCc3[nH]c4ccccc4c3[C@@H]2C1 (relative stereo) [Compound 65, (±)-3aα,10cα-4,5,6,10c-Octahydro-2-(1-methylethyl)pyrrolo[3,4-c]carbazole Hydrochloride Hydrate [1.0:1.0:0.13]]	–	93%
CN1C[C@@H]2CCc3[nH]c4c(F)cccc4c3[C@@H]2C1 (relative stereo) [Compound 47]	93%	–
CN1C[C@@H]2CCc3[nH]c4cccc(F)c4c3[C@@H]2C1 (relative stereo) [Compound 44]	100%	–
CN1C[C@@H]2CCc3[nH]c4cccc(Cl)c4c3[C@@H]2C1 (relative stereo) [Compound 38]	87%	–

Same assay, conditions: Mus musculus, sc, 0.5 h; 30 mg/kg s.c.; acetylcholine bromide 5.5 mg/kg i.p. 30 min later; read-out: % inhibition @ 30 mg/kg

SMILES	% of mice protected from abdominal constriction (non-responders) at 30 mg/kg	responders at 30 mg/kg
Cc1ccc2c3c([nH]c2c1C)CC[C@H]1CN(C)C[C@@H]31 (relative stereo) [Compound 34]	100%	–
Cc1cc(C)c2c3c([nH]c2c1)CC[C@H]1CN(C)C[C@@H]31 (relative stereo) [Compound 49]	100%	–
COc1cccc2c3c([nH]c12)CC[C@H]1CN(C)C[C@@H]31 (relative stereo) [Compound 32]	100%	–
CN1C[C@@H]2CCc3[nH]c4ccc(C#N)cc4c3[C@@H]2C1 (relative stereo) [Compound 73, (±)-3aα,10cα-1,2,3,3a,4,5,6,10c-Octahydro-9-cyano-2-methylpyrrolo-[3,4-c]carbazole]	100%	–
C[C@H]1C[C@H]2CN(C)C[C@H]2c2c1[nH]c1ccccc21 (relative stereo) [Compound 89, (±)-3aα,5β,10cα-4,5,6,10c-Octahydro-2,5-dimethylpyrrolo[3,4-c]carbazole]	–	100%
CN1C[C@@H]2CCc3[nH]c4ccc(F)cc4c3[C@@H]2C1 (relative stereo) [Compound 31]	–	93%
CN1C[C@@H]2CCc3[nH]c4c(C(F)(F)F)cccc4c3[C@@H]2C1 (relative stereo) [Compound 48]	100%	–
CN1C[C@@H]2CCc3[nH]c4cc(Cl)ccc4c3[C@@H]2C1 (relative stereo) [Compound 37]	–	100%
CC(C)c1ccc2[nH]c3c(c2c1)[C@@H]1CN(C)C[C@@H]1CC3 (relative stereo) [Compound 39]	27%	–
CCc1cccc2c3c([nH]c12)CC[C@H]1CN(C)C[C@@H]31 (relative stereo) [Compound 46]	100%	–
C[C@@H]1[C@@H]2c3c([nH]c4ccccc34)CC[C@@H]2CN1C (relative stereo) [Compound 69, (±)-1α,3aβ,10cβ-1,2,3,3a,4,5,6,10c-Octahydro-1,2-dimethylpyrrolo-[3,4-c]carbazole]	–	100%
C=CCN1C[C@@H]2CCc3[nH]c4ccccc4c3[C@@H]2C1 (relative stereo) [Compound 66, (±)-3aα,10cα-1,2,3,3a,4,5,6,10c-Octahydro-2-(propenyl)pyrrolo[3,4-c]carbazole Fumarate [1:0.6]]	100%	–
CN1C[C@@H]2CCc3[nH]c4cc(F)cc(F)c4c3[C@@H]2C1 (relative stereo) [Compound 50]	100%	–
CC(C)(C)N1C[C@@H]2CCc3[nH]c4ccccc4c3[C@@H]2C1 (relative stereo) [Compound 53]	100%	–
CN1C[C@@H]2CCc3[nH]c4c(Cl)ccc(Cl)c4c3[C@@H]2C1 (relative stereo) [Compound 33]	33%	–
CN1C[C@@H]2CCc3[nH]c4cccc(C(F)(F)F)c4c3[C@@H]2C1 (relative stereo) [Compound 42]	60%	–
CN1C[C@@H]2CCc3[nH]c4ccc(Br)cc4c3[C@@H]2C1 (relative stereo) [Compound 36]	–	100%
c1ccc2c3c([nH]c2c1)CC[C@H]1CNC[C@@H]31 (relative stereo) [Compound 64, (±)-3aα,10cα-4,5,6,10c-Octahydropyrrolo[3,4-c]carbazole]	–	80%
CN1CC2CCc3[nH]c4ccccc4c3C2C1 (single isomer, unassigned) [Compound 57]	–	100%
CN1C[C@@H]2CCc3[nH]c4cc(C(F)(F)F)ccc4c3[C@@H]2C1 (relative stereo) [Compound 41]	100%	–
CN1C[C@@H]2C(c3ccccc3)Cc3[nH]c4ccccc4c3[C@@H]2C1 (mixture of isomers) [Compound 75, (±)-3aα,10cα-1,2,3,3a,4,5,6,10c-Octahydro-2-methyl-4-phenylpyrrolo-[3,4-c]carbazole Fumarate [1.0:0.55]]	100%	–
CN1C[C@@H]2CCc3[nH]c4c(Cl)cccc4c3[C@@H]2C1 (relative stereo) [Compound 35]	–	93%
CN1C[C@@H]2CCc3[nH]c4c(Br)cccc4c3[C@@H]2C1 (relative stereo) [Compound 45]	–	73%

Assay: rat air-induced writhing (abdominal constriction) assay
Assay type: in vivo, rats
Settings: Rattus norvegicus, po
Description: The analgesic activity was determined in another model using rats as the test animal. The procedure was essentially described by P. VonVoightlander et al. in Air-induced Writhing, a Rapid Broad Spectrum Assay for Analgesics, Drug Dev. Res., 2, 577-81, (1982). The test compound or vehicle was administered p.o. (2 mL/kg) and after 30 min, the animals received an i.p. injection of air (10 mL). The animals were placed into individual observation chambers and observed for 30 min for the occurrence of abdominal constriction as defined above. The percent inhibition of this response was calculated as follows. The % inhibition of response, i.e., % analgesia is equal to the number nonresponding drug-treated animals×100 divided by the number of animals in the group. […] This effect lasted for 2-3 hours.

SMILES	ED50
COc1cccc(C2(O)CCCCC2CN(C)C)c1 (stereo not shown) [tramadol, reference compound]	1.7 mg/kg

Assay: mouse hot plate assay (48° C.)
Assay type: in vivo, mice
Settings: Mus musculus, po, 0.5 h
Description: The test was essentially described by N. Eddy and D. Leimbach, Synthetic Analgesics II Dithienylbutenyl- and Dithienylbutylamines, J. Pharmacol. Exp. Ther., 107, 385-93 (1953) and J. O'Callaghan and S. Holtzman, Qualification of the Analgesic Activity of Narcotic Antagonists by a Modified Hot-Plate Procedure, J. Pharmacol. Exp. Ther, 192, 497-505 (1975), with minor modifications. Mice were placed on a heated surface (48° C.) and the time interval (seconds) between placement and a shaking, licking, or tucking of the hind paw was recorded as the predrug latency response. This procedure was repeated 30 minutes after the administration of a test compound (p.o., 10 mL/kg). The percent maximum possible antinociceptive effect (% MPE) was determined using the following formula: % MPE=100×(Test latency-Predrug latency)/(Cutoff time-Predrug Latency), using the predrug latency of each animal and cutoff time established to prevent injury to the animal. The cutoff time was 90s.
The ED50 value and 95% confidence intervals were determined using a computer-assisted linear regression analysis of the dose-response curve, including an analysis of variance test for linearity. Oral dosing of Compound 58 produced an analgesic effect after 15 min. This effect lasted for one hour.

SMILES	ED50
COc1cccc(C2(O)CCCCC2CN(C)C)c1 (stereo not shown) [tramadol, reference compound]	28.3 mg/kg
